T1: SLFN5 (Homo sapiens, UniProt Q08AF3)
T1 construct: recombinant
T1 sequence (Q08AF3 1-891): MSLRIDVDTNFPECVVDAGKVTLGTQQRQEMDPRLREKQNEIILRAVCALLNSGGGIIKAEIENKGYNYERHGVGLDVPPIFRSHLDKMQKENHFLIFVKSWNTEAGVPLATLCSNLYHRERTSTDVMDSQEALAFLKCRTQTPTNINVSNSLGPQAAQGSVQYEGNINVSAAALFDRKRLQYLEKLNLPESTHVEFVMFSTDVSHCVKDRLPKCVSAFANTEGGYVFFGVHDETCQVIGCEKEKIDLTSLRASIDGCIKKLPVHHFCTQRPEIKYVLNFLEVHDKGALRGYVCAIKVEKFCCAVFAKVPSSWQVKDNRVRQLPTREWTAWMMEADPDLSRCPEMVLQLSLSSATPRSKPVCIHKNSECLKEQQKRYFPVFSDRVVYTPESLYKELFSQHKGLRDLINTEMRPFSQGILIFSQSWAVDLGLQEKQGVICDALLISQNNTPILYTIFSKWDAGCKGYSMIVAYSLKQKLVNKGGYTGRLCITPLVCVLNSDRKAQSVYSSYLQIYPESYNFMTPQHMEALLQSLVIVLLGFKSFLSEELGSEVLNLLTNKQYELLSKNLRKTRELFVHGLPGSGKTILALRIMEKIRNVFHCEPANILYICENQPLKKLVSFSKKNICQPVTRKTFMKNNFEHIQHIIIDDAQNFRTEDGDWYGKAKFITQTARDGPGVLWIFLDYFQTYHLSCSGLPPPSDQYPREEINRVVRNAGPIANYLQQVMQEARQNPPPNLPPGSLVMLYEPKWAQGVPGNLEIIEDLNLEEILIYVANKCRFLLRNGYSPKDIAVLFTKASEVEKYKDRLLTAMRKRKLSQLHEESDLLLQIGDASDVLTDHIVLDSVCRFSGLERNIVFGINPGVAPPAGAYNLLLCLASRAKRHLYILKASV


Experiments:
SLFN5 = target: T1, SLFN5; experiment: nanoDSF thermal unfolding (Tycho NT.[…]); assay type: binding; conditions: 1 mM nucleotide, 300 nM protein; 25 mM Tris pH 7.5, 60 mM NaCl, 2 mM MgCl2, 1 mM DTT
[1] = target: the molecule itself; experiment: cryo-EM structure; SLFN11^E209A at 5 uM; 50 mM glycine pH 9, 200 mM NaCl, 2 mM MgCl2, 1 mM DTT; dimer reconstructed in C2 symmetry; monomer reconstructed from another dataset
[2] = target: the molecule itself; experiment: mass photometry; 50 nM SLFN11 in 25 mM Tris pH 7.5, 2 mM MgCl2, 1 mM DTT with variable concentrations of NaCl; 100 or 300 nM 60 nt ssDNA added in the stabilisation experiment; monomer-dimer equilibrium

| Molecule | unfolding temperature increase (SLFN5) | also measured |
| --- | --- | --- |
| Nc1ncnc2c1ncn2[C@@H]1O[C@H](COP(=O)(O)OP(=O)(O)OP(=O)(O)O)[C@@H](O)[C@H]1O [ATP] | SLFN5 shows a significant increase in unfolding temperature in presence of ATP and ATPγS | – |
| Nc1ncnc2c1ncn2[C@@H]1O[C@H](COP(=O)(O)OP(=O)(O)OP(O)(O)=S)[C@@H](O)[C@H]1O [ATPγS] | SLFN5 shows a significant increase in unfolding temperature in presence of ATP and ATPγS | – |
| full-length human SLFN11 E209A (enzyme, UniProt Q7Z7L1 1-901, looked up, Schlafen 11 (SLFN11), human, full length, nuclease active site mutant E209A; Made by site-directed mutagenesis of the wild-type construct; source: Trichoplusia ni High Five insect cells, expressed and purified as the wild-type protein) MEANQCPLVVEPSYPDLVINVGEVTLGEENRKKLQKIQRDQEKERVMRAACALLNSGGGVIRMAKKVEHPVEMGLDLEQSLRELIQSSDLQAFFETKQQGRCFYIFVKSWSSGPFPEDRSVKPRLCSLSSSLYRRSETSVRSMDSREAFCFLKTKRKPKILEEGPFHKIHKGVYQELPNSDPADPNSDPADLIFQKDYLEYGEILPFPASQLVEFKQFSTKHFQEYVKRTIPEYVPAFANTGGGYLFIGVDDKSREVLGCAKENVDPDSLRRKIEQAIYKLPCVHFCQPQRPITFTLKIVNVLKRGELYGYACMIRVNPFCCAVFSEAPNSWIVEDKYVCSLTTEKWVGMMTDTDPDLLQLSEDFECQLSLSSGPPLSRPVYSKKGLEHKKELQQLLFSVPPGYLRYTPESLWRDLISEHRGLEELINKQMQPFFRGILIFSRSWAVDLNLQEKPGVICDALLIAQNSTPILYTILREQDAEGQDYCTRTAFTLKQKLVNMGGYTGKVCVRAKVLCLSPESSAEALEAAVSPMDYPASYSLAGTQHMEALLQSLVIVLLGFRSLLSDQLGCEVLNLLTAQQYEIFSRSLRKNRELFVHGLPGSGKTIMAMKIMEKIRNVFHCEAHRILYVCENQPLRNFISDRNICRAETRKTFLRENFEHIQHIVIDEAQNFRTEDGDWYGKAKSITRRAKGGPGILWIFLDYFQTSHLDCSGLPPLSDQYPREELTRIVRNADPIAKYLQKEMQVIRSNPSFNIPTGCLEVFPEAEWSQGVQGTLRIKKYLTVEQIMTCVADTCRRFFDRGYSPKDVAVLVSTAKEVEHYKYELLKAMRKKRVVQLSDACDMLGDHIVLDSVRRFSGLERSIVFGIHPRTADPAILPNVLICLASRAKQHLYIFPWGGH | – | binding result [1]: binds |
| full-length human SLFN11 (Schlafen 11), wild type (enzyme, UniProt Q7Z7L1 1-901, looked up, Schlafen 11 (SLFN11), human, full length; domains: Slfn core 1-353, linker 354-576, helicase 577-901; residues 7-899 built in the model; The construct has an HRV 3C cleavage site after the N-terminal double FLAG tag; The protein was eluted with Flag peptide and no cleavage is described; It is in a monomer-dimer equilibrium in solution; also called SLFN11^wt; source: SEC for cryo-EM samples) MEANQCPLVVEPSYPDLVINVGEVTLGEENRKKLQKIQRDQEKERVMRAACALLNSGGGVIRMAKKVEHPVEMGLDLEQSLRELIQSSDLQAFFETKQQGRCFYIFVKSWSSGPFPEDRSVKPRLCSLSSSLYRRSETSVRSMDSREAFCFLKTKRKPKILEEGPFHKIHKGVYQELPNSDPADPNSDPADLIFQKDYLEYGEILPFPESQLVEFKQFSTKHFQEYVKRTIPEYVPAFANTGGGYLFIGVDDKSREVLGCAKENVDPDSLRRKIEQAIYKLPCVHFCQPQRPITFTLKIVNVLKRGELYGYACMIRVNPFCCAVFSEAPNSWIVEDKYVCSLTTEKWVGMMTDTDPDLLQLSEDFECQLSLSSGPPLSRPVYSKKGLEHKKELQQLLFSVPPGYLRYTPESLWRDLISEHRGLEELINKQMQPFFRGILIFSRSWAVDLNLQEKPGVICDALLIAQNSTPILYTILREQDAEGQDYCTRTAFTLKQKLVNMGGYTGKVCVRAKVLCLSPESSAEALEAAVSPMDYPASYSLAGTQHMEALLQSLVIVLLGFRSLLSDQLGCEVLNLLTAQQYEIFSRSLRKNRELFVHGLPGSGKTIMAMKIMEKIRNVFHCEAHRILYVCENQPLRNFISDRNICRAETRKTFLRENFEHIQHIVIDEAQNFRTEDGDWYGKAKSITRRAKGGPGILWIFLDYFQTSHLDCSGLPPLSDQYPREELTRIVRNADPIAKYLQKEMQVIRSNPSFNIPTGCLEVFPEAEWSQGVQGTLRIKKYLTVEQIMTCVADTCRRFFDRGYSPKDVAVLVSTAKEVEHYKYELLKAMRKKRVVQLSDACDMLGDHIVLDSVRRFSGLERSIVFGIHPRTADPAILPNVLICLASRAKQHLYIFPWGGH | – | stoichiometry N [2]: 2 |

— publication PMC9482658, “Mechanistic understanding of human SLFN11” (Nature Communications, 2022)
